This is an account of results in ChEMBL document CHEMBL4616663, “Resorcylic Acid Lactones from an Ilyonectria sp” (J Nat Prod, 2020).

One assay relates to 769-P. Put plainly: Cytotoxicity against human 769-P cells at 50 uM by MTT assay. Type of assay: functional, cell-based. (Tetrazolium dyes change colour on reduction, which living cells bring about.)
In the next assay the test system is T-cell. The assay can be described thus: Immunosuppressive activity in BALB/c mouse T cells assessed as reduction in ConA-induced cell proliferation. In kind it is functional, cell-based.
The next assay deals with B-cell line. Put plainly: Immunosuppressive activity in BALB/c mouse B cells assessed as reduction in LPS-induced cell proliferation. In kind it is functional, cell-based.
The subject of assay [1] is A549. The assay can be described thus: Cytotoxicity against human A549 cells at 50 uM by MTT assay. Type of assay: functional, cell-based.
The subject of another assay is HCT-116. Put plainly: Cytotoxicity against human HCT116 cells at 50 uM by MTT assay. In kind it is functional, cell-based.
Assay [2] relates to A549. The assay can be described thus: Cytotoxicity against TRAIL-resistant human A549 cells assessed as reduction in cell viability at 15 uM cotreated with TRAIL after 24 hrs by MTT assay relative to compound alone. Type of assay: functional.
In assay [3] the test system is A549. The assay can be described thus: Cytotoxicity against TRAIL-resistant human A549 cells assessed as reduction in cell viability at 30 uM cotreated with TRAIL after 24 hrs by MTT assay relative to compound alone. In kind it is functional.
In assay [4] the test system is A549. Put plainly: Cytotoxicity against TRAIL-resistant human A549 cells assessed as reduction in cell viability at 50 uM cotreated with TRAIL after 24 hrs by MTT assay relative to compound alone. In kind it is functional.

Calls of active or inactive are those of the source. No cut-off for these calls is given here. Some results are limits rather than exact numbers.

Take `CO[C@@H]1C=CC=C2Cc3c(Cl)c(O)cc(O)c3C(=O)O[C@H](C)C[C@@H](O)[C@H]1O2`: the outcome with 769-P, with A549 [1] and with HCT-116 was inactive. The IC50 (commonly the concentration needed to halve the response being measured) with T-cell was more than 25 µM; in the assay with B-cell line, 5.5 µM.

Consider `C[C@@H]1C/C=C/CC/C=C/[C@@H](O)CC(=O)Cc2c(Cl)c(O)cc(O)c2C(=O)O1`, for which the result in the assay with 769-P, in the assay with A549 [1] and with HCT-116 was inactive. The IC50 is 4.1 µM in the assay on T-cell and 9.8 µM in the assay on B-cell line. The Activity in the assay with A549 [2] is listed as 22%; in the assay on A549 [3], 31%; in the assay with A549 [4], 29%.

Take `COc1c(C)c2c(c(O)c1C/C=C(\C)CCC(=O)OCCN1CCOCC1)C(=O)OC2` [MYCOPHENOLATE MOFETIL]: the half-maximal inhibitory concentration (IC50) with B-cell line was determined as 3.2 µM.

`C[C@H]1OC(=O)c2c(O)cc(O)c(Cl)c2/C=C/CC/C=C/[C@@H]1O`: the outcome in the assay with 769-P, in the assay on A549 [1] and with HCT-116 was inactive. Besides, the IC50 in the assay on T-cell and in the assay with B-cell line was more than 25 µM throughout.

As for `C[C@@H]1CC[C@H](O)C(=O)CCCC(=O)Cc2c(Cl)c(O)cc(O)c2C(=O)O1`, the outcome in the assay on 769-P, with A549 [1] and in the assay with HCT-116 was inactive. Also, the IC50 in the assay with T-cell and in the assay with B-cell line was more than 25 µM each time.

For `C[C@H]1OC(=O)c2c(O)cc(O)cc2CC(=O)CCCC/C=C/[C@@H]1O`, the outcome in the assay with 769-P, in the assay with A549 [1] and in the assay on HCT-116 was inactive. Further, the IC50 with T-cell and in the assay with B-cell line was more than 25 µM throughout.

Take `C[C@@H]1C[C@@H](O)/C=C\CCCC(=O)Cc2c(Cl)c(O)cc(O)c2C(=O)O1`: the result in the assay on 769-P, in the assay on A549 [1] and with HCT-116 was inactive. The IC50 with T-cell is more than 25 µM; with B-cell line, 21.9 µM.

On to `C[C@@H]1C/C=C/CCCC[C@@H](O)CC(=O)Cc2c(Cl)c(O)cc(O)c2C(=O)O1`, for which the outcome in the assay on 769-P, with A549 [1] and in the assay with HCT-116 was inactive. The IC50 with T-cell and with B-cell line was more than 25 µM throughout. Further, in the assay on A549 [4], the Activity amounted to 26%.

Regarding `C[C@@H]1C/C=C/CCCC[C@H](O)CC(=O)Cc2c(Cl)c(O)cc(O)c2C(=O)O1`, the result with 769-P, in the assay with A549 [1] and in the assay with HCT-116 was inactive. The IC50 with T-cell and in the assay on B-cell line was more than 25 µM throughout. The Activity in the assay with A549 [4] amounted to 27%.

As for `C[C@@H]1C/C=C/C(=O)CCCC(=O)Cc2cc(O)cc(O)c2C(=O)O1`, the result in the assay on 769-P, with A549 [1] and with HCT-116 was inactive. Besides, the IC50 with T-cell was more than 25 µM; with B-cell line, 18.5 µM.

Take `C[C@@H]1C[C@@H]2O[C@H]2[C@@H]2O[C@@H]2/C=C/[C@@H](O)CC(=O)Cc2c(Cl)c(O)cc(O)c2C(=O)O1`: the outcome in the assay on 769-P, in the assay on A549 [1] and with HCT-116 was inactive. Moreover, the IC50 in the assay with T-cell was determined as 1.9 µM; with B-cell line, 1.1 µM.

For the compound `C[C@@H]1C[C@@H](O)[C@@H]2CC[C@H](CC(=O)Cc3cc(O)cc(O)c3C(=O)O1)O2`, the result in the assay on 769-P, with A549 [1] and with HCT-116 was inactive. The IC50 with T-cell and with B-cell line was more than 25 µM throughout.

Turning to `C[C@@H]1CC(=O)CCC/C=C/C(=O)Cc2c(Cl)c(O)cc(O)c2C(=O)O1`, the outcome with 769-P, with A549 [1] and in the assay on HCT-116 was inactive. In addition, the IC50 in the assay on T-cell and in the assay with B-cell line was more than 25 µM in each case.
